Assays:
CK2 protein kinase = CK2 protein kinase (Homo sapiens (Human), UniProt P68400); conditions: Fruman et al., 1998; cited from earlier work
Class I PI3-kinases = conditions: Fruman et al., 1998; read-out: IC50 against each of the various Class I PI3-kinases; cited from earlier work
[1] = test system: Human recombinant GST-PI3K; experiment: PI3K induced-lipid phosphorylation, neomycin-SPA scintillation proximity assay; type: biochemical; conditions: Human recombinant GST-PI3K, SPA
[2] = test system: IgM-induced Akt phosphorylation in B cell; experiment: IgM-induced Akt phosphorylation in B cell (PBMC, flow cytometry); type: cell-based; conditions: human PBMC, CD19+ IgM+ B cells, read-out: IC50 μM, inhibition of IgM-induced Akt phosphorylation
Experimental: Human PBMC were prepared from a Buffy coat (Geneve Hospital) after a Ficoll gradient (Ficoll-Paque™ Plus PHARMACIA ref: 17-1440-03).
Cell concentration was adjusted to 10^6 cells per mL in RPMI (GIBCO Ref: 72400-21) without serum. Before stimulation, 90 μl of PBMC suspension was incubated with 10 μl of diluted compound in a 96 well round bottom plate for 20 minutes at 37° C.
For B cell activation, 30 μl of Fab′2 Goat anti IgM (Jackson Immuno-research) at10 μg/mL was added to each well. After 5 minutes, cell activation was stopped with 4% paraformaldehyde (10 minutes at room temperature).
Fixed PBMC were then treated for 20 minutes with 0.15% Triton, washed twice with PBS and permeabilized with 50% methanol for 15 minutes.
PBMC were washed twice in PBS, resuspended in: PBS-4% FCS and incubated with anti P-Akt ( 1/100 dilution) for one h at room temperature.
After one wash, PBMC were further stained for 30 minutes with a mixture of anti-CD19-PE (BD Biosciences), anti-IgM-FITC (BD Biosciences) and goat anti rabbit IgG-Alexa 647 (Molecular probe).
After washing, PBMC (Peripheral Blood Mononuclear Cells) were analysed on a FACSCalibur instrument (BD Biosciences) equipped with a 633 helium-neon laser, or stored at 4° C. for further analysis. 510^3 B cells events were gathered per sample in the CD19 positive region.
For the analysis, a threshold was applied on P-Akt histogram of CD19+ IgM+ lymphocytes cells from the non stimulated samples and the percentage of cells above this threshold was determined for each sample.

[3] = test system: IgM-induced Akt phosphorylation in B cell in the presence of whole blood; experiment: IgM-induced Akt phosphorylation in B cell in the presence of whole blood; type: cell-based; conditions: Homo sapiens, CD19+ IgM+ cells, read-out: IC50 μM, inhibition of IgM-induced Akt phosphorylation in the presence of whole blood
Experimental: 100 μl of blood are pre-incubated in falcon tube (352063) for 20 minutes at 37° C.
For B cell activation 100 μl of Fab′2 Goat anti Human IgM (30 ug/mL final) is added to each tube and cells are maintained at 37° C.
After 5 minutes, cell activation is stopped with 130 μl Formaldehyde 10% (4% final) and cells are left 10 minutes at room temperature.
Fixed cells are then treated 30 minutes with Triton 0.1% final (add 1 mL of 0.15% Triton)
After several washes with PBS (red cells lysed progressively during washes, 3-4 washes are necessary), cells are transferred in 96 well plate and permeabilized with 50% ice cold Methanol (resuspend first the cells with 80 μl PBBS and then with 80 μl 100% ice cold Methanol) and put on ice for 15 minutes. Plate can be stored in −20° C. in methanol and surface staining performed another day).
Cells are washed twice with PBS and once with the staining buffer-PBS-4% FCS.
Cells are incubated with anti P-Akt (1/70 dilution) In staining buffer for one h.
After a wash with staining buffer, cells are stained with a mixture of anti CD19-PE (3 ul/well), anti-IGM-FITC (3 ul/well), Goat anti rabbit IgG-Alexa 647 (1/500), goat IgG (1/200) for 30 minutes.
After a wash, cells are resuspended in staining buffer or PBS, kept in fridge or immediately passed on a FACSCalibur instrument (BD Biosciences) equipped with a 633 helium-neon laser (red laser).
P-akt histogram of CD19+IGM+ cells is represented and a threshold is set with the non stimulated sample. The parameter reported for each sample is the % of positive cells above this cursor. A representative example is set out in FIG. 1.

[4] = Ex-vivo IgM-induced Akt phosphorylation in mouse after oral administration; conditions: male, C57Bl/6, blood
Experimental: Compounds are dissolved in 0.5% Carboxymethylcellulose containing 0.25% Tween 20 in water and administered orally to each mouse (6-8 weeks old C57B1/6 males from janvier) in a volume of 10 mL/kg. Half an hour before blood collection, heparin at 100 U/kg is injected intraperitonealy to each mouse. At appropriate Tm (maximum exposure) mice are sacrificed and blood collected by intra-cardiac puncture in heparinised tubes.
Blood is pre-incubated at 37° C. for 20 minutes, then an equal volume of Fab′2 Goat anti-Mouse IgM (μspecific, Jackson ImmunoResearch) at 60 μg/mL is added to each tube. B cell activation is terminated after 3 minutes using formaldehyde 4% final and red blood cells are lysed with another 30 minutes Triton X-100 0.1% treatment. Further to several washes with PBS, cells are transferred in a 96 well plate, permeabilized with 50% ice cold Methanol and put on ice for 15 minutes.
Cells were washed PBS before being incubated for one hour with a Rabbit anti Phospho-Akt antibody (4058 from Cell Signaling) in PBS-4% FCS. […]
Cells were analysed on a FACSCalibur instrument (BD Biosciences) equipped with a 633 helium-neon laser (red laser) and 5.10^3 B cells are collected. A threshold was applied on P-Akt histogram of B220^+ IgM+ lymphocytes from the non stimulated tube and the percentage of cells above this threshold is determined for each sample.

Chain of CK2 protein kinase (P68400 whole entry): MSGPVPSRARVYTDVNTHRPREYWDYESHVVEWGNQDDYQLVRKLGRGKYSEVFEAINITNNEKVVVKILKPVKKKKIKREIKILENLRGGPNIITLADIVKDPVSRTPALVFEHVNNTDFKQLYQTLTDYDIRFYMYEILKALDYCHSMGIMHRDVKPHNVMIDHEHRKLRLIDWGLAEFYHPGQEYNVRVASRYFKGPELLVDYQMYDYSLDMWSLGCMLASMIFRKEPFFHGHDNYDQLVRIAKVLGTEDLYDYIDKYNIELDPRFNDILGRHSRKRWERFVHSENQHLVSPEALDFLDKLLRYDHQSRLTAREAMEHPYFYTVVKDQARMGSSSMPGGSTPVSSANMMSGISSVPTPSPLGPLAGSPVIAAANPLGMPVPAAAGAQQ

SMILES | IC50 [1] | IC50 [2] | other results
O=c1cc(N2CCOCC2)oc2c(-c3ccccc3)cccc12 [LY294002] | – | – | IC50 (CK2 protein kinase): 5000 to 10000 µM
COC[C@H]1OC(=O)c2coc3c2[C@@]1(C)C1=C(C3=O)[C@@H]2CCC(=O)[C@@]2(C)C[C@H]1OC(C)=O [Wortmannin] | – | – | IC50 (Class I PI3-kinases): 0.001 to 0.01 µM
COC(=O)c1ccc(OC)cc1Nc1nc2ccccc2nc1NS(=O)(=O)c1cccnc1 [Example 2] | 0.088 µM | 0.04 µM | –
COc1ccc(CC2CCOCC2)c(Nc2nc3ccccc3nc2NS(C)(=O)=O)c1 [Example 8, N-(3-{[5-methoxy-2-(tetrahydro-2H-pyran-4-ylmethyl)phenyl]amino}quinoxalin-2-yl)methanesulfonamide] | 0.13 µM | 0.07 µM | –
COc1ccc(CC2CCOCC2)c(Nc2nc3ccccc3nc2NS(=O)(=O)c2cn(C)cn2)c1 [Example 7, N-(3-{[5-methoxy-2-(tetrahydro-2H-pyran-4-ylmethyl)phenyl]amino}quinoxalin-2-yl)-1-methyl-1H-imidazole-4-sulfonamide] | 0.049 µM | 0.02 µM | –
COC(=O)c1ccc(OC)cc1Nc1nc2ccccc2nc1NS(=O)(=O)c1cn(C)cn1 [Example 1, methyl 4-methoxy-2-[(3-{[(1-methyl-1H-imidazol-4-yl)sulfonyl]amino}quinoxalin-2-yl)amino]benzoate] | 0.021 µM | 0.07 µM | –

Second part, led by results:

IC50 [1] | IC50 [2] | SMILES | other results
0.11 µM | 0.07 µM | COc1ccc(CC2CCN(C)CC2)c(Nc2nc3ccccc3nc2NS(C)(=O)=O)c1 [Example 13, N-[3-({5-methoxy-2-[(1-methylpiperidin-4-yl)methyl]phenyl}amino)quinoxalin-2-yl]methanesulfonamide] | IC50 [3]: 1 µM
0.027 µM | 0.01 µM | COc1ccc(CC2CCOCC2)c(Nc2nc3ccccc3nc2NS(=O)(=O)c2cccnc2)c1 [Example 9, N-(3-{[5-methoxy-2-(tetrahydro-2H-pyran-4-ylmethyl)phenyl]amino}quinoxalin-2-yl)pyridine-3-sulfonamide] | –
0.043 µM | 0.07 µM | COc1ccc(CC2CCN(C)CC2)c(Nc2nc3ccccc3nc2NS(=O)(=O)c2cn(C)cn2)c1 [Example 11, N-[3-({5-methoxy-2-[(1-methylpiperidin-4-yl)methyl]phenyl}amino)quinoxalin-2-yl]-1-methyl-1H-imidazole-4-sulfonamide] | IC50 [3]: 0.3 µM
– | 0.013 µM | COc1ccc(CC2CCOCC2)c(Nc2nc3ccccc3nc2NS(=O)(=O)c2ccc(CN(C)C)cc2)c1 [Example 86, 4-[(dimethylamino)methyl]-N-(3-{[methoxy-2-(tetrahydro-2H-pyran-4-ylmethyl)phenyl]amino}quinoxalin-2-yl)benzenesulfonamide] | –
0.051 µM | 0.037 µM | COc1ccc(CC2CCN(C(C)=O)CC2)c(Nc2nc3ccccc3nc2NS(=O)(=O)c2cccnc2)c1 [Example 17] | –
0.02 µM | 0.017 µM | COc1ccc(CC2CCC(O)CC2)c(Nc2nc3ccccc3nc2NS(=O)(=O)c2cccnc2)c1 (centres unmarked) [Example 23, N-[3-({2-[(4-hydroxycyclohexyl)methyl]-5-methoxyphenyl}amino)quinoxalin-2-yl]pyridine-3-sulfonamide] | –
0.089 µM | 0.076 µM | COc1ccc(CC2CCN(C(C)=O)CC2)c(Nc2nc3ccccc3nc2NS(=O)(=O)c2cn(C)cn2)c1 [Example 16, N-[3-({2-[(1-acetylpiperidin-4-yl)methyl]-5-methoxyphenyl}amino)quinoxalin-2-yl]-1-methyl-1H-imidazole-4-sulfonamide] | –
0.049 µM | 0.03 µM | COc1ccc(CN2CCN(C)CC2)c(Nc2nc3ccccc3nc2NS(=O)(=O)c2cccnc2)c1 [Example 81, N-[3-({5-methoxy-2-[(4-methylpiperazin-1-yl)methyl]phenyl}amino)quinoxalin-2-yl]pyridine-3-sulfonamide] | IC50 [3]: 1.9 µM; Tmax [4]: 15 min
